Test results from the NIST ThermoML archive (doi:10.1016/j.fluid.2017.01.019).
± gives the expanded uncertainty stated by the source.

Columns and labels:
[1] = 101.33 kPa, Liquid; for viscosity: Falling or rolling sphere viscometry; for speed of sound: Sing-around technique in a fixed-path interferometer; for mass density: Vibrating tube method
[2] = xn = mol fraction of the nth substance listed; conditions: 100 kPa, Liquid, x2 = 0; for mass density: Vibrating tube method; for viscosity: Falling or rolling sphere viscometry; for speed of sound: Frequency=3 MHz, Sing-around technique in a fixed-path interferometer

| SMILES | viscosity ([1]; 298.15 K) | speed of sound ([1]; 298.15 K) | mass density ([1]; 298.15 K) | viscosity ([1]; 303.15 K) | speed of sound ([1]; 303.15 K) | mass density ([1]; 303.15 K) | viscosity ([1]; 308.15 K) | speed of sound ([1]; 308.15 K) | mass density ([1]; 308.15 K) | viscosity ([1]; 313.15 K) | speed of sound ([1]; 313.15 K) | mass density ([1]; 313.15 K) | viscosity ([1]; 318.15 K) | speed of sound ([1]; 318.15 K) | mass density ([1]; 318.15 K) | viscosity ([1]; 323.15 K) | speed of sound ([1]; 323.15 K) | mass density ([1]; 323.15 K) | viscosity ([2]; 303.15 K) | speed of sound ([2]; 303.15 K) | other results |
| --- | --- | --- | --- | --- | --- | --- | --- | --- | --- | --- | --- | --- | --- | --- | --- | --- | --- | --- | --- | --- | --- |
| CCOS(=O)(=O)[O-].CCn1cc[n+](C)c1 [1-ethyl-3-methylimidazolium ethyl sulfate] | 96.21 ± 3.2 mPa·s | 1682.3 ± 5.1 m/s | 1236.33 ± 8.3 kg/m3 | 75.89 ± 2.2 mPa·s | 1670 ± 5.1 m/s | 1232.93 ± 8.3 kg/m3 | 60.73 ± 1.6 mPa·s | 1657.9 ± 5.1 m/s | 1229.57 ± 8.2 kg/m3 | 49.38 ± 1.3 mPa·s | 1645.9 ± 5.1 m/s | 1226.21 ± 8.2 kg/m3 | 40.93 ± 1.1 mPa·s | 1634.1 ± 5.1 m/s | 1222.87 ± 8.1 kg/m3 | 33.82 ± 0.89 mPa·s | 1622.3 ± 5.1 m/s | 1219.54 ± 8.1 kg/m3 | – | – | – |
| CCCCO [butan-1-ol] | 2.61 ± 0.15 mPa·s | 1239.8 ± 1.3 m/s | 806.27 ± 0.24 kg/m3 | 2.31 ± 0.15 mPa·s | 1223.2 ± 1.3 m/s | 802.42 ± 0.24 kg/m3 | 2.07 ± 0.15 mPa·s | 1206.3 ± 1.3 m/s | 798.536 ± 0.24 kg/m3 | 1.85 ± 0.15 mPa·s | 1189.7 ± 1.2 m/s | 794.617 ± 0.24 kg/m3 | 1.66 ± 0.15 mPa·s | 1173.1 ± 1.2 m/s | 790.655 ± 0.24 kg/m3 | 1.5 ± 0.15 mPa·s | 1156.5 ± 1.2 m/s | 786.645 ± 0.24 kg/m3 | – | – | – |
| CCCCO [butan-1-ol] + CCOS(=O)(=O)[O-].CCn1cc[n+](C)c1 | – | – | – | – | – | – | – | – | – | – | – | – | – | – | – | – | – | – | 2.31 ± 0.15 mPa·s | 1224.3 ± 1.3 m/s | mass density ([2]; 289.15 K): 806.27 ± 0.23 kg/m3; viscosity ([2]; 298.15 K): 2.61 ± 0.15 mPa·s; speed of sound ([2]; 298.15 K): 1241.1 ± 1.3 m/s; mass density ([2]; 303.15 K): 802.42 ± 0.24 kg/m3; viscosity ([2]; 308.15 K): 2.07 ± 0.15 mPa·s; speed of sound ([2]; 308.15 K): 1207.5 ± 1.3 m/s; mass density ([2]; 308.15 K): 798.536 ± 0.24 kg/m3; viscosity ([2]; 313.15 K): 1.85 ± 0.15 mPa·s; speed of sound ([2]; 313.15 K): 1190.9 ± 1.3 m/s; mass density ([2]; 313.15 K): 794.617 ± 0.24 kg/m3; viscosity ([2]; 318.15 K): 1.66 ± 0.15 mPa·s; speed of sound ([2]; 318.15 K): 1174.2 ± 1.2 m/s; mass density ([2]; 318.15 K): 790.655 ± 0.24 kg/m3; viscosity ([2]; 323.15 K): 1.5 ± 0.15 mPa·s; speed of sound ([2]; 323.15 K): 1157.6 ± 1.2 m/s; mass density ([2]; 323.15 K): 786.645 ± 0.24 kg/m3 |
| CO [methanol] | 0.55 ± 0.15 mPa·s | 1103.3 ± 1.2 m/s | 786.884 ± 0.24 kg/m3 | 0.51 ± 0.15 mPa·s | 1086.9 ± 1.2 m/s | 782.158 ± 0.24 kg/m3 | 0.48 ± 0.15 mPa·s | 1070.6 ± 1.2 m/s | 777.414 ± 0.24 kg/m3 | 0.45 ± 0.15 mPa·s | 1054.5 ± 1.2 m/s | 772.64 ± 0.24 kg/m3 | 0.43 ± 0.15 mPa·s | 1038.5 ± 1.2 m/s | 767.844 ± 0.24 kg/m3 | 0.41 ± 0.15 mPa·s | 1022.5 ± 1.2 m/s | 763.028 ± 0.24 kg/m3 | – | – | – |
| CO [methanol] + CCCCO | – | – | – | – | – | – | – | – | – | – | – | – | – | – | – | – | – | – | 0.51 ± 0.15 mPa·s | 1086.9 ± 1.2 m/s | viscosity ([2]; 293.15 K): 0.55 ± 0.15 mPa·s; speed of sound ([2]; 298.15 K): 1103.3 ± 1.2 m/s; mass density ([2]; 298.15 K): 786.884 ± 0.24 kg/m3; mass density ([2]; 303.15 K): 782.158 ± 0.24 kg/m3; viscosity ([2]; 308.15 K): 0.48 ± 0.15 mPa·s; speed of sound ([2]; 308.15 K): 1070.6 ± 1.2 m/s; mass density ([2]; 308.15 K): 777.414 ± 0.24 kg/m3; viscosity ([2]; 313.15 K): 0.45 ± 0.15 mPa·s; speed of sound ([2]; 313.15 K): 1054.5 ± 1.2 m/s; mass density ([2]; 313.15 K): 772.64 ± 0.24 kg/m3; viscosity ([2]; 318.15 K): 0.43 ± 0.15 mPa·s; speed of sound ([2]; 318.15 K): 1038.5 ± 1.2 m/s; mass density ([2]; 318.15 K): 767.844 ± 0.24 kg/m3; viscosity ([2]; 323.15 K): 0.41 ± 0.15 mPa·s; speed of sound ([2]; 323.15 K): 1022.5 ± 1.2 m/s; mass density ([2]; 323.15 K): 763.028 ± 0.24 kg/m3 |
| CO [methanol] + CCOS(=O)(=O)[O-].CCn1cc[n+](C)c1 | – | – | – | – | – | – | – | – | – | – | – | – | – | – | – | – | – | – | 0.51 ± 0.15 mPa·s | 1086.9 ± 1.2 m/s | viscosity ([2]; 298.15 K): 0.55 ± 0.15 mPa·s; mass density ([2]; 298.15 K): 786.884 ± 0.24 kg/m3; mass density ([2]; 303.15 K): 782.158 ± 0.24 kg/m3; viscosity ([2]; 308.15 K): 0.48 ± 0.15 mPa·s; speed of sound ([2]; 308.15 K): 1070.6 ± 1.2 m/s; mass density ([2]; 308.15 K): 777.414 ± 0.24 kg/m3; viscosity ([2]; 313.15 K): 0.45 ± 0.15 mPa·s; speed of sound ([2]; 313.15 K): 1054.5 ± 1.2 m/s; mass density ([2]; 313.15 K): 772.64 ± 0.24 kg/m3; viscosity ([2]; 318.15 K): 0.43 ± 0.15 mPa·s; speed of sound ([2]; 318.15 K): 1038.5 ± 1.2 m/s; mass density ([2]; 318.15 K): 767.844 ± 0.24 kg/m3; viscosity ([2]; 323.15 K): 0.41 ± 0.15 mPa·s; speed of sound ([2]; 323.15 K): 1022.5 ± 1.2 m/s; mass density ([2]; 323.15 K): 763.028 ± 0.24 kg/m3 |
